Laboratory results: the supplement of paper PMC10307832

Experiments:
Assay in all cases: relative viability (nuclei count vs DMSO), 5 days (fraction); higher = more cells survive
RERF-LC-KJ = test system: RERF-LC-KJ
In short: (§1)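 Nuclei were stained with Hoechst during a one-step fixation (final 0.05% Triton X-100, 1% formaldehyde, 1 ug/ml Hoechst) carried out 5 days after dosing, then counted on 4× images. The cells, lung cancer lines in 1536-well plates, had been dosed by pin tool the day after seeding with one drug alone or a fixed anchor-drug dose plus five library-drug doses (not always all listed) in √10 steps. Relative viability is the nuclei count in treated wells divided by that in vehicle wells, and each value is the median of duplicate plates.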

EMC-BAC-2 = test system: EMC-BAC-2
In short: as §1

NCI-H1437 = test system: NCI-H1437
In short: as §1

NCI-H1734 = test system: NCI-H1734
In short: as §1

201T = test system: 201T
In short: as §1

LCLC-103H = test system: LCLC-103H
In short: as §1

NCI-H1792 = test system: NCI-H1792
In short: as §1

NCI-H661 = test system: NCI-H661
In short: as §1

NCI-H1395 = test system: NCI-H1395
In short: as §1

NCI-H1975 = test system: NCI-H1975
In short: as §1

UMC-11 = test system: UMC-11
In short: as §1

NCI-H1793 = test system: NCI-H1793
In short: as §1

SK-LU-1 = test system: SK-LU-1
In short: as §1

EPLC-272H = test system: EPLC-272H
In short: as §1

HCC-78 = test system: HCC-78
In short: as §1

NCI-H1651 = test system: NCI-H1651
In short: as §1

NCI-H647 = test system: NCI-H647
In short: as §1

LOU-NH91 = test system: LOU-NH91
In short: as §1

NCI-H2405 = test system: NCI-H2405
In short: as §1

NCI-H2023 = test system: NCI-H2023
In short: as §1

NCI-H1915 = test system: NCI-H1915
In short: as §1

NCI-H23 = test system: NCI-H23
In short: as §1

ABC-1 = test system: ABC-1
In short: as §1

O=C(O)CCCCC(CCSCc1ccccc1)SCc1ccccc1 (centres undefined) [CPI-613] + Nc1ncn([C@H]2C[C@H](O)[C@@H](CO)O2)c(=O)n1 [Decitabine] (partner 2 µM)
relative viability (RERF-LC-KJ; first compound 5 µM): 0.663
relative viability (RERF-LC-KJ; first compound 15.81 µM): 0.619
relative viability (RERF-LC-KJ; first compound 50 µM): 0.643
relative viability (RERF-LC-KJ; first compound 158.11 µM): 0.272
relative viability (RERF-LC-KJ; first compound 500 µM): 0.199
relative viability (EMC-BAC-2; first compound 5 µM): 0.982
relative viability (EMC-BAC-2; first compound 15.81 µM): 0.9
relative viability (EMC-BAC-2; first compound 50 µM): 0.942
relative viability (EMC-BAC-2; first compound 158.11 µM): 0.74
relative viability (EMC-BAC-2; first compound 500 µM): 0.632
relative viability (NCI-H1437; first compound 5 µM): 0.491
relative viability (NCI-H1437; first compound 15.81 µM): 0.542
relative viability (NCI-H1437; first compound 50 µM): 0.567
relative viability (NCI-H1437; first compound 158.11 µM): 0.207
relative viability (NCI-H1437; first compound 500 µM): 0.0486
relative viability (NCI-H1734; first compound 5 µM): 0.488
relative viability (NCI-H1734; first compound 15.81 µM): 0.46
relative viability (NCI-H1734; first compound 50 µM): 0.437
relative viability (NCI-H1734; first compound 158.11 µM): 0.409
relative viability (NCI-H1734; first compound 500 µM): 0.111
relative viability (201T; first compound 5 µM): 0.848
relative viability (201T; first compound 15.81 µM): 0.778
relative viability (201T; first compound 50 µM): 0.841
relative viability (201T; first compound 158.11 µM): 0.194
relative viability (201T; first compound 500 µM): 0.211
relative viability (LCLC-103H; first compound 5 µM): 0.753
relative viability (LCLC-103H; first compound 15.81 µM): 0.77
relative viability (LCLC-103H; first compound 50 µM): 0.714
relative viability (LCLC-103H; first compound 158.11 µM): 0.29
relative viability (LCLC-103H; first compound 500 µM): 0.288
relative viability (NCI-H1792; first compound 5 µM): 0.571
relative viability (NCI-H1792; first compound 15.81 µM): 0.449
relative viability (NCI-H1792; first compound 50 µM): 0.572
relative viability (NCI-H1792; first compound 158.11 µM): 0.253
relative viability (NCI-H1792; first compound 500 µM): 0.0627
relative viability (NCI-H661; first compound 5 µM): 0.547
relative viability (NCI-H661; first compound 15.81 µM): 0.49
relative viability (NCI-H661; first compound 50 µM): 0.577
relative viability (NCI-H661; first compound 158.11 µM): 0.381
relative viability (NCI-H661; first compound 500 µM): 0.0993
relative viability (NCI-H1395; first compound 5 µM): 0.667
relative viability (NCI-H1395; first compound 15.81 µM): 0.654
relative viability (NCI-H1395; first compound 50 µM): 0.764
relative viability (NCI-H1395; first compound 158.11 µM): 0.675
relative viability (NCI-H1395; first compound 500 µM): 0.597
relative viability (NCI-H1975; first compound 5 µM): 0.391
relative viability (NCI-H1975; first compound 15.81 µM): 0.413
relative viability (NCI-H1975; first compound 50 µM): 0.399
relative viability (NCI-H1975; first compound 158.11 µM): 0.412
relative viability (NCI-H1975; first compound 500 µM): 0.0581
relative viability (UMC-11; first compound 5 µM): 0.574
relative viability (UMC-11; first compound 15.81 µM): 0.573
relative viability (UMC-11; first compound 50 µM): 0.611
relative viability (UMC-11; first compound 158.11 µM): 0.562
relative viability (UMC-11; first compound 500 µM): 0.544
relative viability (NCI-H1793; first compound 5 µM): 0.468
relative viability (NCI-H1793; first compound 15.81 µM): 0.51
relative viability (NCI-H1793; first compound 50 µM): 0.539
relative viability (NCI-H1793; first compound 158.11 µM): 0.25
relative viability (NCI-H1793; first compound 500 µM): 0.108
relative viability (SK-LU-1; first compound 5 µM): 0.693
relative viability (SK-LU-1; first compound 15.81 µM): 0.527
relative viability (SK-LU-1; first compound 50 µM): 0.533
relative viability (SK-LU-1; first compound 158.11 µM): 0.314
relative viability (SK-LU-1; first compound 500 µM): 0.0957
relative viability (EPLC-272H; first compound 5 µM): 0.358
relative viability (EPLC-272H; first compound 15.81 µM): 0.386
relative viability (EPLC-272H; first compound 50 µM): 0.429
relative viability (EPLC-272H; first compound 158.11 µM): 0.343
relative viability (EPLC-272H; first compound 500 µM): 0.319
relative viability (HCC-78; first compound 15.81 µM): 0.709
relative viability (HCC-78; first compound 50 µM): 0.836
relative viability (HCC-78; first compound 158.11 µM): 0.691
relative viability (HCC-78; first compound 500 µM): 0.742
relative viability (NCI-H1651; first compound 5 µM): 0.625
relative viability (NCI-H1651; first compound 15.81 µM): 0.504
relative viability (NCI-H1651; first compound 50 µM): 0.661
relative viability (NCI-H1651; first compound 158.11 µM): 0.523
relative viability (NCI-H1651; first compound 500 µM): 0.562
relative viability (NCI-H647; first compound 5 µM): 0.345
relative viability (NCI-H647; first compound 15.81 µM): 0.462
relative viability (NCI-H647; first compound 50 µM): 0.352
relative viability (NCI-H647; first compound 158.11 µM): 0.0749
relative viability (NCI-H647; first compound 500 µM): 0.0141
relative viability (LOU-NH91; first compound 5 µM): 0.794
relative viability (LOU-NH91; first compound 15.81 µM): 0.783
relative viability (LOU-NH91; first compound 50 µM): 0.819
relative viability (LOU-NH91; first compound 158.11 µM): 0.765
relative viability (LOU-NH91; first compound 500 µM): 0.683
relative viability (NCI-H2405; first compound 5 µM): 0.754
relative viability (NCI-H2405; first compound 15.81 µM): 0.72
relative viability (NCI-H2405; first compound 50 µM): 0.709
relative viability (NCI-H2405; first compound 158.11 µM): 0.674
relative viability (NCI-H2405; first compound 500 µM): 0.535
relative viability (NCI-H2023; first compound 5 µM): 0.215
relative viability (NCI-H2023; first compound 15.81 µM): 0.257
relative viability (NCI-H2023; first compound 50 µM): 0.244
relative viability (NCI-H2023; first compound 158.11 µM): 0.0918
relative viability (NCI-H2023; first compound 500 µM): 0.0147
relative viability (NCI-H1915; first compound 5 µM): 0.272
relative viability (NCI-H1915; first compound 15.81 µM): 0.266
relative viability (NCI-H1915; first compound 50 µM): 0.256
relative viability (NCI-H1915; first compound 158.11 µM): 0.235
relative viability (NCI-H1915; first compound 500 µM): 0.114
relative viability (NCI-H23; first compound 5 µM): 0.34
relative viability (NCI-H23; first compound 15.81 µM): 0.321
relative viability (NCI-H23; first compound 50 µM): 0.326
relative viability (NCI-H23; first compound 158.11 µM): 0.155
relative viability (NCI-H23; first compound 500 µM): 0.0289
relative viability (ABC-1; first compound 5 µM): 1.18
relative viability (ABC-1; first compound 15.81 µM): 1.28
relative viability (ABC-1; first compound 50 µM): 1.37
relative viability (ABC-1; first compound 158.11 µM): 0.698
relative viability (ABC-1; first compound 500 µM): 0.864
